In patent publication US12497411B2, “Muscarinic acetylcholine receptor subtype 4 antagonists in the treatment of anemia” (COLD SPRING HARBOR LABORATORY, priority 2019, dated 2025):

Legend:
CHRM4 = target: T1, CHRM4 (Homo sapiens, UniProt P08173); test: Radioligand binding assay, CHRM4; parameters: expressed in transfected cells; host or cells: CHO cells (membranes); conditions: [3H]4-DAMP (0.2 nM), CHO cell membranes, 60 minutes at room temperature; read-out: Ki M4
T1 sequence (P08173 1-479): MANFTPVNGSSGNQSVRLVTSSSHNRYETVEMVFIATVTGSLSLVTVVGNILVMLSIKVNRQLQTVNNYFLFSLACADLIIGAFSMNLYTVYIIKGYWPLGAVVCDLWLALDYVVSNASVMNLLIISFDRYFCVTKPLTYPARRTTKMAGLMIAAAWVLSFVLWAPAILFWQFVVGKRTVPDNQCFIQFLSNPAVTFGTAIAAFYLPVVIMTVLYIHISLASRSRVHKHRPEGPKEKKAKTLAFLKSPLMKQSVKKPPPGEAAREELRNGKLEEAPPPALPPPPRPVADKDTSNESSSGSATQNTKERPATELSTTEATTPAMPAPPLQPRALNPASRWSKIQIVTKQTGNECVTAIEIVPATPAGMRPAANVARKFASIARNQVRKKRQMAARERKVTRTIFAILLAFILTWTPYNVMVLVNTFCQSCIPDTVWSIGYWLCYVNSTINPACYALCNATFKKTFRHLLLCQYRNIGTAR
Description: (§1) PD102807 and Compounds A-K at concentrations of 1×10^−9 M, 1×10^−8 M, 1×10^−7 M, 1×10^−6 M, and 1×10^−5 M were tested in standard binding assays with radioligands and cell membranes with receptors. Compound binding was calculated as a percent inhibition of the binding of a radioactively labeled ligand specific for each target, and the Ki values were determined. For CHRM1, the binding assay was performed using [^3H]pirenzepine (2 nM) as a radioligand and membranes of CHO cells with human recombinant CHRM1 receptor. The incubation time was 60 minutes at room temperature. For CHRM2, the binding assay was performed using [^3H]AF-DX 384 (2 nM) as a radioligand and membranes of CHO cells with human recombinant CHRM2 receptor. The incubation time was also 60 minutes at room temperature. For CHRM3, the binding assay was performed using [^3H]4-DAMP (0.2 nM) as a radioligand and membranes of CHO cells with human recombinant CHRM3 receptor. The incubation time was also 60 minutes at room temperature. For CHRM4, the binding assay was performed using [^3H]4-DAMP (0.2 nM) as a radioligand and membranes of CHO cells with human recombinant CHRM4 receptor. The incubation time was also 60 minutes at room temperature. For CHRM5, the binding assay was performed using [^3H]4-DAMP (0.3 nM) as a radioligand and membranes of CHO cells with human recombinant CHRM5 receptor. The incubation time was also 60 minutes at room temperature.

[1] = target: T2, human recombinant CHRM2 receptor (Homo sapiens, UniProt P08172); test: Radioligand binding assay, CHRM2; conditions: [3H]AF-DX 384 (2 nM), CHO cell membranes, 60 minutes at room temperature; read-out: Ki M2
T2 construct: expressed in transfected cells; host or cells: CHO cells (membranes)
T2 sequence (P08172 1-466): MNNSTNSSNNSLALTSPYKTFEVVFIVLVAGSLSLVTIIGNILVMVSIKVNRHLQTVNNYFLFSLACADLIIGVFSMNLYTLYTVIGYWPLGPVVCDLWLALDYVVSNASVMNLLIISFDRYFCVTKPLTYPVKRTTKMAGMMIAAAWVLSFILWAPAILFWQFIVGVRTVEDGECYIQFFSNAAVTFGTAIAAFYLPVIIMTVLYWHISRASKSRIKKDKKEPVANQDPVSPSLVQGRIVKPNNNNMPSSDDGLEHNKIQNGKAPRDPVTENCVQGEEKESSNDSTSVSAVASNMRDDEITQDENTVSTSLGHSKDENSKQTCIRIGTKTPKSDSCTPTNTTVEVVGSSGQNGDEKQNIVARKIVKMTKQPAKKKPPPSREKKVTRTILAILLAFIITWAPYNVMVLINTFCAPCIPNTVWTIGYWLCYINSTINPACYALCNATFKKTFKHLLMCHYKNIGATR
Description: as §1

[2] = target: T3, human recombinant CHRM5 receptor (Homo sapiens, UniProt P08912); test: Radioligand binding assay, CHRM5; conditions: [3H]4-DAMP (0.3 nM), CHO cell membranes, 60 minutes at room temperature; read-out: Ki M5
T3 construct: expressed in transfected cells; host or cells: CHO cells (membranes)
T3 sequence (P08912 1-532): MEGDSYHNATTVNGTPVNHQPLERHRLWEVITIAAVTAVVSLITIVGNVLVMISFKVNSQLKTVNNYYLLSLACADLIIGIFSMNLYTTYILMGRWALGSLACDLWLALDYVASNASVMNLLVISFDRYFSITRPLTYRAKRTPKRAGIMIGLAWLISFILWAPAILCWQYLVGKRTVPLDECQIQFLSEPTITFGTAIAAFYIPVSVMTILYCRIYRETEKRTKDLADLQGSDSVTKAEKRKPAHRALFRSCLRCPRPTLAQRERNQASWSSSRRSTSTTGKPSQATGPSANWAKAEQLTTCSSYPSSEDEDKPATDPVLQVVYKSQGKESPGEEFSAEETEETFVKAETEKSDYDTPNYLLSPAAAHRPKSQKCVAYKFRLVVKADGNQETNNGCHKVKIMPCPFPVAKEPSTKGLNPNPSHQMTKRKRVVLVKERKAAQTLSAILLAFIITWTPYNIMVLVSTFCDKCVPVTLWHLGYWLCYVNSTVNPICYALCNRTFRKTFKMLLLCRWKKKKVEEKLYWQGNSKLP
Description: as §1

[3] = tested on: PHZ induced hemolytic anemia in C57bl/6 mice; test: PHZ induced hemolytic anemia mouse model, CBC; assay type: in vivo; conditions: 60 mg/kg phenylhydrazine
Description: Animal experiments were conducted in the Cold Spring Harbor Laboratory Animal Shared Resource in accordance with Institutional Animal Care and Use Committee-approved procedures. 4-6 weeks old C57bl/6 mice, purchased from Jackson Laboratory and randomly distributed into compound and control treatment groups, were given through oral delivery of PCS1055 (50 mg/kg or 100 mg/kg) twice per day or PD102807 (50 mg/kg or 100 mg/kg) once per day everyday for 3 days. On day 3, mice were intraperitoneally injected with 60 mg/kg PHZ. Mice were then given through oral delivery of PD102807 (50 mg/kg or 100 mg/kg) once per day every day for 2 days. Peripheral blood samples were collected retro-orbitally on day 6 using heparinized capillary tubes in blood collection tubes with K2-EDTA. CBC was performed using Hemavet 950. […] C57bl/6 mice were injected with 60 mg/kg phenylhydrazine to induce hemolysis. Mice were delivered with either vehicle control or Compound A or B (30 mg/kg or 100 mg/kg). Peripheral blood samples were collected retro-orbitally using heparinized capillary tubes into blood collection tubes with K2-EDTA. Complete blood counting was performed using Hemavet 950. Hematocrit (HCT), red blood cell (RBC) and hemoglobin (Hb) values are shown. […] C57bl/6 mice were injected with 60 mg/kg phenylhydrazine to induce hemolysis. Mice were delivered with subcutaneous injection with either vehicle control or Compound B (1.5 mg/kg, 3 mg/kg, or 5 mg/kg) or I (0.5 mg/kg, 0.7 mg/kg, or 1 mg/kg). Peripheral blood samples were collected retro-orbitally using heparinized capillary tubes into blood collection tubes with K2-EDTA. Complete blood counting was performed using Hemavet 950. Hematocrit (HCT), red blood cell (RBC) and hemoglobin (Hb) values are shown.

[4] = target: T4, human recombinant CHRM1 receptor (Homo sapiens, UniProt P11229); test: Radioligand binding assay, CHRM1; conditions: [3H]pirenzepine (2 nM), CHO cell membranes, 60 minutes at room temperature; read-out: Ki M1
T4 construct: expressed in transfected cells; host or cells: CHO cells (membranes)
T4 sequence (P11229 1-460): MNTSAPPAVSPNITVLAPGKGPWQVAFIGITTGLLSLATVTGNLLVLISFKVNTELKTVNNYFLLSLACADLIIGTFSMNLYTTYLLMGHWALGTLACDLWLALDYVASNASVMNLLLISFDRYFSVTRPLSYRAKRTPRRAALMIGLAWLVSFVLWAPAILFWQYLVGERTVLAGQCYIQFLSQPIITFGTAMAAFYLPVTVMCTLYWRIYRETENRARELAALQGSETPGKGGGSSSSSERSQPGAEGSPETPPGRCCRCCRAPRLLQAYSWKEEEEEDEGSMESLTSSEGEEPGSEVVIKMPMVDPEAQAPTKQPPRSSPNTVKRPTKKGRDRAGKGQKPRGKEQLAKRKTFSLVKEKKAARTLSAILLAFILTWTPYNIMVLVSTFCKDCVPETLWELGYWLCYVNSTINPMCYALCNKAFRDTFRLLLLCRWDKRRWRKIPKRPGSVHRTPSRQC
Description: as §1

Row | Ki (CHRM4) | Ki [1] | Ki [2] | Ki [4] | SMILES | treatment of anemia in vivo (HCT, RBC, Hb) ([3]; 30 mg/kg or 100 mg/kg, C57bl/6 mice) | treatment of anemia in vivo (HCT, RBC, Hb) ([3]; subcutaneous injection, B 1.5, 3 or 5 mg/kg, I 0.5, 0.7 or 1 mg/kg)
1 | 1.8 µM | 2.2 µM | 3.5 µM | – | CCOC(=O)c1c(C)[nH]c2ccc3c(c12)C[N+]1(C)CCc2cc(OC)ccc2C1O3 (single isomer, unassigned) [Compound A, 1-(ethoxycarbonyl)-9-methoxy-2,13-dimethyl-3,6a,11,12,13,14-hexahydroindolo[4′,5′:5,6][1,3]oxazino[2,3-a]isoquinolin-13-ium Iodide] | treat anemia in vivo | –
2 | 0.74 µM | 1.7 µM | 10 µM | 8.5 µM | CCOC(=O)c1c(C)n(C)c2ccc3c(c12)C[N+]1(C)CCc2cc(OC)ccc2C1O3 (single isomer, unassigned) [Compound I, 1-(ethoxycarbonyl)-9-methoxy-2,3,13-trimethyl-3,6a,11,12,13,14-hexahydroindolo[4′,5′:5,6][1,3]oxazino[2,3-a]isoquinolin-13-ium Iodide] | – | treat anemia in vivo
